# In patent US12391991B2, “Markers to predict macrocyclic lactone drug resistance in Dirofilaria immitis, the causative agent of heartworm disease” (priority 2013, dated 2025):
# Entries after “also recorded” stand apart in the source; their conditions may differ. Like-named read-outs stand apart in the source and are kept apart here. Marks after values point to notes of the source that are not given here.
# Columns and labels:
# D. immitis microfilariae = test system: D. immitis microfilariae; design: species or system Dirofilaria immitis; conditions: in vivo
# [1] = test system: D. immitis microfilariae (LOE isolate case 4); conditions: in vivo
# [2] = test system: D. immitis mf from dog Jd2009; format: cell-based, Dirofilaria immitis
# [3] = test system: D. immitis (LOE isolate case 5); design: species or system Dirofilaria immitis; conditions: in vivo
# [4] = test system: D. immitis Jd2009-2 isolate; design: species or system Dirofilaria immitis; conditions: in vivo
# [5] = test system: adult heartworms (D. immitis); design: species or system Dirofilaria immitis; conditions: in vivo
# [6] = test system: D. immitis (LOE isolate case 2); design: species or system Dirofilaria immitis; conditions: in vivo
compound,measurement,setting,value
"CC[C@H](C)[C@H]1O[C@]2(CC[C@@H]1C)C[C@@H]1C[C@@H](C/C=C(\C)[C@@H](O[C@H]3C[C@H](OC)[C@@H](O[C@H]4C[C@H](OC)[C@@H](O)[C@H](C)O4)[C@H](C)O3)[C@@H](C)/C=C/C=C3\CO[C@@H]4[C@H](O)C(C)=C[C@@H](C(=O)O1)[C@]34O)O2 [IVM, ivermectin]",Knott's test result,D. immitis microfilariae,Knott's test +ve^a
same,Microfilaremic status,D. immitis microfilariae,remained continually microfilaremic; also recorded: still microfilaremic
same,Microfilariae concentration in blood,D. immitis microfilariae; po,≥100^b mf/ml
same,Knott's test,[1],again positive
same,Knott's tests,[1],both positive
same,Sensitivity of mf to drug,[2],significantly less sensitive
same,mf status during weekly dosing,[3],remained positive for mf
"CO[C@H]1C[C@H](O[C@@H]2/C(C)=C/C[C@@H]3C[C@@H](C[C@]4(CC[C@H](C)[C@@H](C5CCCCC5)O4)O3)OC(=O)[C@@H]3C=C(C)/C(=N/O)[C@H]4OC/C(=C\C=C\[C@@H]2C)[C@]43O)O[C@@H](C)[C@@H]1O [SEL, selamectin]",Outcome of monthly chemoprophylaxis as recommended,[4],at least one dog in groups of four to six dogs on these heartworm preventatives became infected
CCN(CC)C(=O)N1CCN(C)CC1 [diethylcarbamazine],Blood smear,[1],no mf
same,Side effects of the treatment,[1],No side effects
Cl.Cl.NCCS[As](SCCN)c1ccc(Nc2nc(N)nc(N)n2)cc1 [melarsomine dihydrochloride],D. immitis antigen test,[5],negative
same,Antigen test Name-result (+ve or −ve),[5]; dihydrochloride,SNAP −ve^a; also recorded: DiroChek −ve^c; also recorded: PetChek −ve^a
milbemycin oxime [MO],Knott's test result,D. immitis microfilariae,Knott's test +ve^a; also recorded: Knott's test +ve^c
same,Microfilaremic status,D. immitis microfilariae,remained continually microfilaremic
same,Microfilariae concentration in blood,D. immitis microfilariae,≥100^b mf/ml
same,Microfilariae in blood,D. immitis microfilariae,microfilariae were still present
same,Knott's test,[1]; po,positive
same,Heartworm antigen status,[6],heartworm antigen positive
same,Outcome of monthly chemoprophylaxis as recommended,[4],at least one dog in groups of four to six dogs on these heartworm preventatives became infected
same,Heartworm antigen test,[3],positive heartworm antigen test
